pIC50, pKd: −log10 of the molar value. Like-named read-outs stand apart in the source and are kept apart here. Bridge positions count the residues as written; N and C are the ends. Square brackets hold non-standard residues; d marks the D form. Peptide text beside a SMILES is read from it. * marks the point of attachment. 5FAM = O=C1OC2(c3ccc(O)cc3Oc3cc(O)ccc32)c2ccc(C(=O)*)cc21; Trp(6-F) = N[C@@H](Cc1c[nH]c2cc(F)ccc12)C(=O)O; hArg = N=C(N)NCCCC[C@H](N)C(=O)O
Columns and labels:
[1] = target: T1, PCSK9Δhelix (Homo sapiens, UniProt Q8NBP7); assay: Surface plasmon resonance biosensor-based affinity analysis (Example 4); format: binding; conditions: Table 7, Target PCSK9Δhelix, SPR at 20° C.; read-out: Kd
T1 construct: Human PCSK9 construct M1-Q692 with an engineered TEV site (residue deletion Y166, R167); made in house; host or cells: CHO
Method: All assays were conducted at an analysis temperature of 20° C. Samples were held at 10° C. in the sample rack to prevent denaturation of PCSK9 proteins. A biacore T100 from GE HealthCare and a SensiQ Pioneer FE were employed. All reagents were obtained from Sigma-Aldrich unless otherwise stated. The full set of peptides was analyzed using three closely related biosensor protocols that were expected to report equivalent affinity/kinetic parameters. The need for multiple protocols was related to the aggregation potential of some peptides. The buffer composition was largely conserved other than the addition of solubilizers such as dimethylsulfoxide (DMSO), 10 kDa polyvinylpyrrolidone (PVP) and 10 kDa carboxymethylated dextran (CM dextran).
A Series S NTA sensor chip was docked in the Biacore T100 biosensor system. The system was primed into running buffer (i.e. 50 mM HEPES, 0.15 M NaCl, 0.005% T20, pH 7.5). Hexahistidine-tagged proteins (“hexahistidine” disclosed as SEQ ID NO: 297) (i.e. PCSK9 or PCSK9Δhelix) were affinity captured onto separate sensing channels where at least one sensing surface remained uncoated in order to be applied as a referencing sensing surface. Compound samples were prepared in running buffer and injected. All affinity bound complexes were then removed before reloading each protein in order to test the next sample. Each sample cycle therefore consisted of five sequential injections that were repeated for each test sample as follows.
Injected sample using high quality injection mode. […] For these compounds the entire sample cycle consisting of five serial injections was repeated for each dilution. This sample cycle was a repeated sequence that is executed for each sample in the sample table.
This method was identical to method 1 except an alternative injection mode designated as single cycle kinetics (named by the manufacturer) was employed allowing a full dilution series to be completed during each sample cycle by replacing a single compound dilution injection with five sequential injections of increasing concentration. The resulting sensorgram (i.e. response curve) contained five binding-dissociation phases each associated with each injected compound dilution. The activation, capture and regeneration injections remained unchanged. […] Also CM dextran (Sigma-Aldrich product number 86524) was added to all buffers in the assay to a final concentration of 2 mg/mL in order to further lower non-specific binding to the surface. […] All recorded binding curves were automatically double referenced and fitted with a 1:1 model using BIAevaluation analysis software from GE HealthCare.
This instrument is analogous to Biacore AB biosensors in terms of surface chemistry, flow injection analysis and methodologies that can be employed except that it also provides a method to titrate compounds over the sensing surfaces.

[2] = target: T1, PCSK9Δhelix; assay: PCSK9Δhelix/Ab20 TR-FRET binding assay; conditions: for pIC50: TR-FRET, read-out: PCSK9Δhelix/Ab20 IC50
[3] = system: His-EGF(A)-Fc; assay: His-EGF(A)-Fc TR-FRET counterscreen
[4] = target: PCSK9 (Homo sapiens, UniProt Q8NBP7); assay: PCSK9/EGF(A) TR-FRET binding assay; conditions: for pIC50: TR-FRET, read-out: PCSK9/EGF(A) IC50
[5] = TR-FRET counterscreen, Table 8E, additional compounds

T1 sequence (Q8NBP7 with tags, fused parts or gaps limits assumed): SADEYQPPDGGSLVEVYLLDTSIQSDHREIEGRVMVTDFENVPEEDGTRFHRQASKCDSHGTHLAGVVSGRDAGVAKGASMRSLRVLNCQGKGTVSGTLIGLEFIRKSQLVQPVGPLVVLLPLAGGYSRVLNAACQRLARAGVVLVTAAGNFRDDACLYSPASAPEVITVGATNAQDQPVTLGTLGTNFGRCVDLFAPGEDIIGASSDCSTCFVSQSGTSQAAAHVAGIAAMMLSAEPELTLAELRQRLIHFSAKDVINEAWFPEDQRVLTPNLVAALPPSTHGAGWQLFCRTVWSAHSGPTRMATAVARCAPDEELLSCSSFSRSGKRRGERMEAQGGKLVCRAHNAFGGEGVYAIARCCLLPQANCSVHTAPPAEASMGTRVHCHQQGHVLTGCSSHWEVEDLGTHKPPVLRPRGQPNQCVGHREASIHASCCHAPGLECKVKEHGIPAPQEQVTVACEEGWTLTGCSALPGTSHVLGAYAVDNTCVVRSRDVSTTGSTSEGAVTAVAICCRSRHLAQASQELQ
T1 sequence (Q8NBP7 31-152 partner limits assumed): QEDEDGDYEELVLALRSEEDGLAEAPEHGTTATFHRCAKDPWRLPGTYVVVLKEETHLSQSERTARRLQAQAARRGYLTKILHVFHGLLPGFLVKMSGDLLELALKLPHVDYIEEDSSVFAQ
Chain of PCSK9 (Q8NBP7 153-692): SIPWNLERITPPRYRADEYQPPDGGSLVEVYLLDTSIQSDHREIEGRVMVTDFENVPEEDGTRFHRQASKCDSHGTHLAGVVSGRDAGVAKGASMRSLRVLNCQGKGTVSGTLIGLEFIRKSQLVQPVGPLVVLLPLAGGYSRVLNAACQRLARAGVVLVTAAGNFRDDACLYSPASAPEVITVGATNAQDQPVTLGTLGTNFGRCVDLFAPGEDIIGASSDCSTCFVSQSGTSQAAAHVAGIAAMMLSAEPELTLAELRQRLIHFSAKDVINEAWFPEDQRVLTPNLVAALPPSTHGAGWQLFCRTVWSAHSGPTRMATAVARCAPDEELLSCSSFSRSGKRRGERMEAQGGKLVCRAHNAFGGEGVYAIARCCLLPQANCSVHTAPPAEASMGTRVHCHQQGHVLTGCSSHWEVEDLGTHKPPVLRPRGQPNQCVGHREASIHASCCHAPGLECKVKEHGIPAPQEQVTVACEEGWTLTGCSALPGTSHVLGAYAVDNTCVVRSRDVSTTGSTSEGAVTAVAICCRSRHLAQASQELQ
Chain of PCSK9 (Q8NBP7 31-152 partner limits assumed): as the sequence (Q8NBP7 31-152 partner limits assumed) above

Molecule | pIC50 ([2]; Example 7) | pIC50 ([3]; counterscreen, Example 7) | pIC50 ([4]; Example 7) | further results
CC[C@H](C)[C@@H]1NC(=O)[C@H](CCCNC(=N)N)NC(=O)[C@H](CCCCN)NC(=O)[C@H](CC(C)C)NC(=O)[C@H](CC(N)=O)NC(=O)[C@H](Cc2c[nH]c3ccccc23)NC(=O)[C@@H](NC(=O)CNC(=O)[C@H](CO)NC(=O)CNC(=O)[C@@H](NC(=O)[C@H](Cc2c[nH]c3ccccc23)NC(=O)[C@H](CC(=O)O)NC(=O)[C@H](CC(C)C)NC(=O)[C@H](Cc2ccc(O)cc2)NC(=O)[C@H](CCC(=O)O)NC(=O)[C@H](CCC(=O)O)NC(=O)[C@H](Cc2c[nH]c3ccccc23)NC(=O)[C@H](CO)NC(=O)[C@@H](NC(=O)[C@H](Cc2ccccc2)NC(=O)[C@@H](NC(=O)[C@@H](NC(C)=O)[C@@H](C)O)C(C)C)[C@@H](C)O)C(C)C)CSSC[C@@H](C(N)=O)NC(=O)CNC(=O)[C@H](CCC(N)=O)NC(=O)[C@H](CO)NC(=O)CNC1=O [Compound 2] (Ac-TVFTSWEEYLDWVGSGCWNLKRIGSQGC-NH2; disulfide 17-28) | 8.40 | < 4.30 |  | pKd [1]: 8.73
CC[C@H](C)[C@@H]1NC(=O)[C@H](CCCNC(=N)N)NC(=O)[C@H](CCC(N)=O)NC(=O)[C@H](CC(C)C)NC(=O)[C@H](CC(N)=O)NC(=O)[C@H](Cc2c[nH]c3ccccc23)NC(=O)[C@@H]2CCCN2C(=O)[C@H]([C@@H](C)CC)NC(=O)[C@H](Cc2ccccc2)NC(=O)[C@@H](NC(=O)CNC(=O)[C@H](CO)NC(=O)CNC(=O)[C@H](CO)NC(=O)c2ccc3c(c2)C(=O)OC32c3ccc(O)cc3Oc3cc(O)ccc32)CSSC[C@@H](C(N)=O)NC(=O)[C@H](CC(C)C)NC(=O)[C@H](CC(C)C)NC(=O)CNC1=O [Compound 33] (5FAM-SGSGCFIPWNLQRIGLLC-NH2; disulfide 5-18) |  |  |  | pKd [1]: 5.00
CC[C@H](C)[C@@H]1NC(=O)[C@H](CCCNC(=N)N)NC(=O)[C@H](CCCCN)NC(=O)[C@H](CC(C)C)NC(=O)[C@H](CC(N)=O)NC(=O)[C@H](Cc2c[nH]c3ccccc23)NC(=O)[C@H](CC(C)C)NC(=O)[C@@H](NC(=O)[C@H](Cc2ccccc2)NC(C)=O)CSSC[C@@H](C(=O)N[C@@H](Cc2c[nH]c3ccccc23)C(=O)N[C@@H](Cc2ccccc2)C(N)=O)NC(=O)[C@H](CCC(N)=O)NC(=O)[C@H](C)NC(=O)CNC1=O [Compound 96] (Ac-FCLWNLKRIGAQCWF-NH2; disulfide 2-13 (inferred)) |  |  |  | pKd [1]: 5.60
CC[C@H](C)[C@H](NC(=O)[C@H](CCCCNC(=N)N)NC(=O)[C@@H](NC(=O)[C@H](CC(C)C)NC(=O)[C@H](CC(N)=O)NC(=O)[C@@H](N)Cc1c[nH]c2ccccc12)C(C)C)C(=O)NCC(=O)N[C@@H](CC(C)C)C(=O)N[C@@H](CC(C)C)C(=O)N[C@@H](CCC(N)=O)C(N)=O [Compound 237, WNLV(homoR)IGLLQ-NH2] (H-WNLV[hArg]IGLLQ-NH2) |  |  |  | pIC50 ([2]; Table 8E, additional compounds): 6.48; pIC50 [3, 5]: 4.34; pIC50 ([4]; Table 8E, additional compounds): 5.06
CC[C@H](C)[C@@H]1NC(=O)[C@H](CCCNC(=N)N)NC(=O)[C@H](CCC(N)=O)NC(=O)[C@H](CC(C)C)NC(=O)[C@H](CC(N)=O)NC(=O)[C@H](Cc2c[nH]c3ccccc23)NC(=O)[C@@H]2CCCN2C(=O)[C@H](CC(C)C)NC(=O)[C@H](CCCNC(=N)N)NC(=O)[C@@H](NC(=O)CNC(=O)[C@H](CO)NC(=O)CNC(=O)[C@@H](NC(=O)[C@H](Cc2c[nH]c3ccccc23)NC(=O)[C@H](CC(=O)O)NC(=O)[C@H](CC(C)C)NC(=O)[C@H](Cc2ccc(O)cc2)NC(=O)[C@H](CCC(=O)O)NC(=O)[C@H](CCC(=O)O)NC(=O)[C@H](Cc2c[nH]c3cc(F)ccc23)NC(=O)[C@H](CO)NC(=O)[C@@H](NC(=O)[C@H](Cc2ccccc2)NC(=O)[C@@H](NC(=O)[C@@H](NC(C)=O)[C@@H](C)O)C(C)C)[C@@H](C)O)C(C)C)CSSC[C@@H](C(N)=O)NC(=O)[C@@H]2CCCN2C(=O)[C@H](CC(C)C)NC(=O)CNC1=O [Compound 241] (Ac-TVFTS[Trp(6-F)]EEYLDWVGSGCRLPWNLQRIGLPC-NH2; disulfide 17-30 (inferred)) |  |  |  | pIC50 ([2]; Table 8E, additional compounds): 7.00; pIC50 [3, 5]: ≤ 4.30; pIC50 ([4]; Table 8E, additional compounds): 5.80
Ac-DAMPWNLVRIGLLR-NH2 [Compound 44] | 5.16 | < 4.30 | < 4.30 | 
Ac-DLAPWNLVRIGLLR-NH2 [Compound 43] | 5.09 | < 4.30 | < 4.30 | 
Ac-DLMAWNLVRIGLLR-NH2 [Compound 42] | 4.55 | < 4.30 | < 4.30 | 
Ac-DLMPANLVRIGLLR-NH2 [Compound 41] | < 4.31 | < 4.30 | < 4.30 | 
Ac-DLMPWALVRIGLLR-NH2 [Compound 62] | < 4.31 | < 4.30 | < 4.30 | 
Ac-DLMPWNAVRIGLLR-NH2 [Compound 61] | < 4.31 | < 4.30 | < 4.30 | 
Ac-DLMPWNLARIGLLR-NH2 [Compound 60] | 4.72 | < 4.30 | < 4.30 | 
Ac-DLMPWNLKRIGLLR-NH2 [Compound 158] |  |  |  | pIC50 ([2]; Table 8E, additional compounds): 4.92; pIC50 [3, 5]: ≤ 4.30; pIC50 ([4]; Table 8E, additional compounds): ≤ 4.30
Ac-DLMPWNLVAIGLLR-NH2 [Compound 59] | < 4.31 | < 4.30 | < 4.30 | 
Ac-DLMPWNLVRAGLLR-NH2 [Compound 58] | < 4.31 | < 4.30 | < 4.30 | 
Ac-DLMPWNLVRI-NH2 [Compound 49] | ≤ 4.31 | < 4.30 | < 4.30 | 

Molecule | pIC50 ([2]; Example 7) | pIC50 ([3]; counterscreen, Example 7) | pIC50 ([4]; Example 7) | further results
Ac-DLMPWNLVRIALLR-NH2 [Compound 57] | < 4.31 | < 4.30 | < 4.30 | 
Ac-DLMPWNLVRIG-NH2 [Compound 48] | ≤ 4.31 | < 4.30 | < 4.30 | 
Ac-DLMPWNLVRIGALR-NH2 [Compound 56] | 4.77 | < 4.30 | < 4.30 | 
Ac-DLMPWNLVRIGL-NH2 [Compound 47] | 4.90 | < 4.30 | < 4.30 | 
Ac-DLMPWNLVRIGLL-NH2 [Compound 46] | 4.85 | < 4.30 | < 4.30 | 
Ac-DLMPWNLVRIGLLA-NH2 [Compound 54] | 4.81 | < 4.30 | < 4.30 | 
Ac-DLMPWNLVRIGLPR-NH2 [Compound 160] |  |  |  | pIC50 ([2]; Table 8E, additional compounds): 4.72; pIC50 [3, 5]: ≤ 4.30; pIC50 ([4]; Table 8E, additional compounds): ≤ 4.30
Ac-GGMPWNLVRIGLLR-NH2 [Compound 125] |  |  |  | pIC50 ([2]; Table 8E, additional compounds): 5.15; pIC50 [3, 5]: ≤ 4.30; pIC50 ([4]; Table 8E, additional compounds): ≤ 4.30
Ac-GLMPWNLVRIGLLR-NH2 [Compound 124] |  |  |  | pIC50 ([2]; Table 8E, additional compounds): 5.41; pIC50 [3, 5]: ≤ 4.30; pIC50 ([4]; Table 8E, additional compounds): ≤ 4.30
Ac-PWNLVRIGL-NH2 [Compound 119] | ≤ 4.31 | < 4.30 | < 4.30 | 
Ac-SGDLMPWNLVRIGLLR-NH2 [Compound 122] |  |  |  | pIC50 ([2]; Table 8E, additional compounds): 5.25; pIC50 [3, 5]: ≤ 4.30; pIC50 ([4]; Table 8E, additional compounds): ≤ 4.30
Ac-TVFTSWEEYLDWVGSGGKLWNLGRV-NH2 [Compound 9] | 7.19 | < 4.30 | 6.41 | 
Ac-TVFTSWEEYLDWVGSGKLWN-NH2 [Compound 7] | 4.73 | < 4.30 | 6.30 | 
Ac-TVFTSWEEYLDWVGSGKLWNLGRV-NH2 [Compound 1] | 7.68 | < 4.30 |  | inhibition in the PCSK9Δhelix/Ab20 binding assay [2]: superior activity; inhibition in the PCSK9/EGF(A) binding assay [4]: comparable activity to Pep2-8
Ac-WNLVRIGL-NH2 [Compound 120] | ≤ 4.31 | < 4.30 | < 4.30 | 
H-SGDLMPWNLVRIGLLR-OH [Compound 28] |  |  |  | pKd [1]: 6.07
